How the values were obtained:
Alcalase = biological target: T1, Alcalase (Bacillus licheniformis, UniProt P00780); test: biochemical; details: substrate SAAPFpNA; 0.1 M Tris-HCl pH 8.6; 25° C.; Alcalase 1×10^-10 -3×10^-10 M
T1 construct: purchased Novo Nordisk A/S
T1 sequence (P00780 106-379): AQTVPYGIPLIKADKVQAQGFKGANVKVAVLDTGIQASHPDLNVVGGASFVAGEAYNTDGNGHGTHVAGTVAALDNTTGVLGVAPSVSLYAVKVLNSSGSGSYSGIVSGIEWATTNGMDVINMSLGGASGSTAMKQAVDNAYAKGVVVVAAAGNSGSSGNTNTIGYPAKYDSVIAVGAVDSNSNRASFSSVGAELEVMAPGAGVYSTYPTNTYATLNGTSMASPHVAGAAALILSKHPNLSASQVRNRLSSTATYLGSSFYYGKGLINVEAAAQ
From the text: (§1) c) Determination of Ki : The inhibition constant Ki may be determined by using standard methods, for reference see Keller et al, Biochem. Biophys. Res. Com. 176, 1991, pp.401-405; J. Bieth in Bayer-Symposium "Proteinase Inhibitors", pp. 463-469, Springer-Verlag, 1974 and Lone Kierstein Hansen in "Determination of Specific Activities of Selected Detergent Proteases using Protease Activity, Molecular Weights, Kinetic Parameters and Inhibition Kinetics", PhD-report, Novo Nordisk A/S and University of Copenhagen, 1991.
(§2) The inhibition constants Ki, for the inhibition of Alcalase and Savinase respectively, were determined using standard methods under the following conditions:
(§3) Substrate: Succinyl-Alanine-Alanine-Proline-Phenylalanine-para-nitro-anilide=SAAPFpNA(Sigma S-7388).
(§4) Buffer: 0.1 M Tris-HCl pH 8.6; 25° C.
(§5) Enzyme concentration in assay
(§6) The initial rate of substrate hydrolysis was determined at nine substrate concenterations in the range of 0.01 to 2 mM using a Cobas Fara automated spectrophotometer. The kinetic parameters Vmax and Km were determined using ENZFITTER (a non-linear regression data analysis program). kcat was calculated from the equation Vmax =kcat X[Eo ]. The concentration of active enzyme [Eo ] was determined by active site titration using tight-binding protein proteinase inhibitors. The inhibition constant Ki was calculated from plots of Km /kcat as a function of the concentration of inhibitor. The inhibitors were assumed to be 100% pure and the molar concentrations were determined using weighing numbers and molecular weights.

Savinase [1] = biological target: T2, Savinase (Lederbergia lenta, UniProt P29600); test: biochemical; design: species or system Bacillus; details: substrate SAAPFpNA; 0.1 M Tris-HCl pH 8.6; 25° C.; Savinase 1-10^-10 -3×10^-10 M
T2 construct: purchased Novo Nordisk A/S
T2 sequence (P29600 1-269): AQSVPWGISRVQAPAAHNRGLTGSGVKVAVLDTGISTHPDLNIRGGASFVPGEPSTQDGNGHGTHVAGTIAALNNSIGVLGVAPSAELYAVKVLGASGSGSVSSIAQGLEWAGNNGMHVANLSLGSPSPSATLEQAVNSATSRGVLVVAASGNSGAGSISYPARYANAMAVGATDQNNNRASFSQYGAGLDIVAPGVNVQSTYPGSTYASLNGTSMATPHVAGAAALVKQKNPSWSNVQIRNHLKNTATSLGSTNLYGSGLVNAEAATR
From the text: as §1, §2, §3, §4, §5, §6

Savinase [2] = biological target: T2, Savinase; test: Storage Stability Test in Liquid Detergent (improvement factor IFI, inhibition of protease); format: biochemical, Bacillus; details: US-type liquid detergent, 1% w/w Savinase + 1% w/w Lipolase, 0, 3, 7 and 14 days at 30° C.
Procedure: a) Storage Stability Test in Licuid Deterrent: Enzyme(s) and stabilizer are added to a liquid detergent formulation and stored at well defined conditions. The enzyme activity of each enzyme is determined as a function of time, e.g. after 0, 3, 7 and 14 days.
To calculate the inhibition efficiency from the storage stability date a reaction mechanism is proposed.
From these reactions three coupled differential equations are derived describing the deactivation of P, L and PI. The reaction rate constants are derived from storage stability data by the use of a parameter estimation method (Gauss-Newton with the Levenberg modification). The storage stability data give the concentration of (P+PI) and L as a function of time.
Reaction IV is excluded from the system to reduce the number of parameters thereby describing the stability of the inhibited enzyme by only one reaction rate constant (from equation V).
In all experiments there is a large surplus of inhibitor molecules compared to protease molecules, i.e. a constant concentration of inhibitor (corresponding to the added amount of inhibitor) is a reasonable assumption.
An improvement factor is thus derived: [formula] IFI measures the inhibition efficiency given by the inhibition constants KI from reaction III.
Different boronic and borinic acid derivative enzyme stabilizers were also tested in storage stability tests in liquid detergents using the method described previously under the following conditions: […]

subtilisin = details: Keller et al, Biochem. Biophys. Res. Com. 176, 1991; cited from earlier work
proteolytic enzymes = details: prior art; cited from earlier work
[3] = stabilizer 5 mmole/kg, relative to boric acid

For OB(O)c1cc2ccccc2o1, the Ki (Alcalase) was 1000 µM and the Ki (Savinase [1]) was 800 µM.

In the case of Cc1cc(B(O)O)c(C)s1 [2,5-dimethylthiophene-3-boronic acid], the Ki (Alcalase) is reported as 3000 µM, the Ki (Savinase [1]) is reported as 6000 µM and the “Improvement factor IFI” value (Savinase [2]; [3]) is reported as 7.

In the case of OB(O)CCC1CCCCC1 [2-cyclohexylethyl], the “capacity as subtilisin inhibitor” value (subtilisin) is listed as “poor inhibitors”.

For OB(O)c1cc(Cl)cc(Cl)c1 [3,5-dichlorophenylboronic acid], the “capacity as subtilisin inhibitor” value (subtilisin) is listed as “particularly effective”.

OB(O)c1sccc1Br [3-Bromothiophene-2-boronic acid] gave a Ki (Alcalase) of 2000 µM and a Ki (Savinase [1]) of 2000 µM.

In the case of COc1ccsc1B(O)O [3-Methoxythiophene-2-boronic acid], the Ki (Alcalase) is reported as 3000 µM, the Ki (Savinase [1]) is reported as 1200 µM and the “Improvement factor IFI” value (Savinase [2]; [3]) is reported as 8.

Compound OB(O)CCc1cccc2[nH]c3ccccc3c12 [4-Carbazole ethyl boronic acid] has a Ki (Alcalase) of 1000 µM and a Ki (Savinase [1]) of 2000 µM.

With Cc1csc(B(O)O)c1 [4-Methylthiophene-2-boronic acid] the Ki (Alcalase) was 1800 µM, the Ki (Savinase [1]) was 3000 µM and the “Improvement factor IFI” value (Savinase [2]; [3]) was 4.

For COc1ccc(B(O)O)cc1 [4-methoxyphenyl], the “capacity as subtilisin inhibitor” value (subtilisin) is given as “very good inhibitors”.

In the case of OB(O)c1ccc(Br)s1 [5-Bromothiophene-2-boronic acid], the Ki (Alcalase) is reported as 400 µM, the Ki (Savinase [1]) is reported as 200 µM and the “Improvement factor IFI” value (Savinase [2]; [3]) is reported as 124.

With OB(O)c1ccc(Cl)s1 [5-Chlorothiophene-2-boronic acid] the Ki (Alcalase) was 300 µM, the Ki (Savinase [1]) was 200 µM and the “Improvement factor IFI” value (Savinase [2]; [3]) was 123.

In the case of CCc1ccc(B(O)O)o1 [5-Ethylfuran-2-boronic acid], the Ki (Alcalase) is reported as 2000 µM and the Ki (Savinase [1]) is reported as 3000 µM.

In the case of CCc1ccc(B(O)O)s1 [5-Ethylthiophene-2-boronic acid], the Ki (Alcalase) is reported as 700 µM, the Ki (Savinase [1]) is reported as 900 µM and the “Improvement factor IFI” value (Savinase [2]; [3]) is reported as 66.

In the case of COc1ccc(B(O)O)o1 [5-Methoxyfuran-2-boronic acid], the Ki (Alcalase) is reported as 2000 µM and the Ki (Savinase [1]) is reported as 3000 µM.

For COc1ccc(B(O)O)s1 [5-Methoxythiophene-2-boronic acid], the Ki (Alcalase) was 2000 µM, the Ki (Savinase [1]) was 1000 µM and the “Improvement factor IFI” value (Savinase [2]; [3]) was 14.

With Cc1ccc(B(O)O)s1 [5-Methylthiophene-2-boronic acid] the Ki (Alcalase) was 2000 µM, the Ki (Savinase [1]) was 3000 µM and the “Improvement factor IFI” value (Savinase [2]; [3]) was 12.

In the case of CCCc1ccc(B(O)O)s1 [5-n-Propylthiophene-2-boronic acid], the Ki (Alcalase) is reported as 1500 µM and the Ki (Savinase [1]) is reported as 3000 µM.

In the case of OB(O)c1cc2ccccc2o1 [Benzofuran-2-boronic acid], the “Improvement factor IFI” value (Savinase [2]; [3]) is reported as 190.

In the case of OB(O)O [Boric acid, reference compound], the “Improvement factor IFI” value (Savinase [2]; reference, boric acid 160 mmole/kg) is listed as 1 and the “inhibition of proteolytic enzymes” value (proteolytic enzymes) is listed as “reversibly inhibit proteolytic enzymes”.

With OB(O)c1cccc2oc3ccccc3c12 [Dibenzofuran-1-boronic acid] the Ki (Alcalase) was 1100 µM, the Ki (Savinase [1]) was 1500 µM and the “Improvement factor IFI” value (Savinase [2]; [3]) was 9.

With OB(O)c1cccc2c1oc1ccccc12 [Dibenzofuran-4-boronic acid] the Ki (Alcalase) was 900 µM, the Ki (Savinase [1]) was 1100 µM and the “Improvement factor IFI” value (Savinase [2]; [3]) was 19.

In the case of OB(O)c1cccc2sc3ccccc3c12 [Dibenzothiophene-1-boronic acid], the Ki (Alcalase) is reported as 900 µM, the Ki (Savinase [1]) is reported as 1500 µM and the “Improvement factor IFI” value (Savinase [2]; [3]) is reported as 12.

Compound OB(c1ccccc1)c1ccccc1 [Diphenylborinic acid (ethanolamine complex)] has a Ki (Alcalase) of 2000 µM and a Ki (Savinase [1]) of 4000 µM.

In the case of OB(O)c1ccco1 [Furan-2-boronic acid], the Ki (Alcalase) is reported as 3000 µM, the Ki (Savinase [1]) is reported as 4000 µM and the “Improvement factor IFI” value (Savinase [2]; [3]) is reported as 13.

In the case of OB(O)c1ccoc1 [Furan-3-boronic acid], the Ki (Alcalase) is reported as 10000 µM, the Ki (Savinase [1]) is reported as 7000 µM and the “Improvement factor IFI” value (Savinase [2]; [3]) is reported as 32.

With OB(O)c1cc2ccccc2s1 [Thionaphthrene-1-boronic acid] the Ki (Alcalase) was 2000 µM, the Ki (Savinase [1]) was 3000 µM and the “Improvement factor IFI” value (Savinase [2]; [3]) was 20.

With OB(O)c1cccs1 [Thiophene-2-boronic acid] the Ki (Alcalase) was 2000 µM, the Ki (Savinase [1]) was 2000 µM and the “Improvement factor IFI” value (Savinase [2]; [3]) was 72.

In the case of OB(O)c1ccsc1 [Thiophene-3-boronic acid], the Ki (Alcalase) is reported as 2000 µM, the Ki (Savinase [1]) is reported as 2000 µM and the “Improvement factor IFI” value (Savinase [2]; [3]) is reported as 63.

In the case of CCCCB(O)O [butyl], the “capacity as subtilisin inhibitor” value (subtilisin) is given as “poor inhibitors”.

For CB(O)O [methylboronic acid], the “capacity as subtilisin inhibitor” value (subtilisin) is listed as “poorest inhibitor”.

In the case of OB(O)c1ccccc1 [phenyl], the “capacity as subtilisin inhibitor” value (subtilisin) is given as “very good inhibitors”.

With Picoline-2-boronic acid the Ki (Alcalase) was 3000 µM and the Ki (Savinase [1]) was 4000 µM.

In the case of acetamidobenzene boronic acid, the “inhibition of proteolytic enzymes” value (proteolytic enzymes) is given as “superior inhibitor of proteolytic enzymes”.

— patent US5840677A, “Boronic acid or borinic acid derivatives as enzyme stabilizers” (Novo Nordisk A/S, priority 1993, dated 1998)
